Experimental findings from patent publication US10011629B2, “Nucleoside analogs for treatment of the flaviviridae family of viruses and cancer” (Cocrystal Pharma, Inc., priority 2015, dated 2018) are described below.

Data set [1] deals with mitochondrial DNA (COXII gene) in HepG2 cells. In words: Mitochondrial DNA level in HepG2 cells (real-time PCR). As for the experimental part:
This assay was used in all studies described in this application that determine the effect of compounds on mitochondrial DNA content. In this assay, low-passage-number HepG2 cells were seeded at 5,000 cells/well in collagen-coated 96-well plates. Test compounds were added to the medium to obtain final concentrations of 0 μM, 0.1 μM, 10 μM and 100 μM. […] The mitochondrial cytochrome c oxidase subunit II (COXII) gene and the ß-actin or rRNA gene were amplified from 5 μl of the eluted nucleic acids using a multiplex Q-PCR protocol with suitable primers and probes for both target and reference amplifications. […] For exon 3 of the ß-actin gene (GenBank accession number E01094) the sense, probe, and antisense primers are 5′-[…]-3′ (SEQ ID NO. 4), 5′-6-[…]-3′ (SEQ ID NO. 5) and 5′-[…]-3′ (SEQ ID NO. 6), respectively. The primers and probes for the rRNA gene are commercially available from Applied Biosystems. […] The arithmetic formula for this approach is given by 2-ΔΔCT, where ΔΔCT is (CT for average target test sample−CT for target control)−(CT for average reference test−CT for reference control) (see Johnson M R, K Wang, J B Smith, M J Heslin, R B Diasio. Quantitation of dihydropyrimidine dehydrogenase expression by real-time reverse transcription polymerase chain reaction. Anal. Biochem. 2000; 278:175-184). A decrease in mitochondrial DNA content in cells grown in the presence of drug indicated mitochondrial toxicity.
(In general: Real-time PCR tracks product formation cycle by cycle.)

Data set [2] deals with nuclear DNA (ß-actin or rRNA gene) in HepG2 cells. In words: Nuclear DNA level in HepG2 cells (real-time PCR). It is filed as cell-based, human. To be noted: Homo sapiens, HepG2, 336 h. As for the experimental part: This assay was used in all studies described in this application that determine the effect of compounds on mitochondrial DNA content. In this assay, low-passage-number HepG2 cells were seeded at 5,000 cells/well in collagen-coated 96-well plates. Test compounds were added to the medium to obtain final concentrations of 0 μM, 0.1 μM, 10 μM and 100 μM. […] The mitochondrial cytochrome c oxidase subunit II (COXII) gene and the ß-actin or rRNA gene were amplified from 5 μl of the eluted nucleic acids using a multiplex Q-PCR protocol with suitable primers and probes for both target and reference amplifications. […] For exon 3 of the ß-actin gene (GenBank accession number E01094) the sense, probe, and antisense primers are 5′-[…]-3′ (SEQ ID NO. 4), 5′-6-[…]-3′ (SEQ ID NO. 5) and 5′-[…]-3′ (SEQ ID NO. 6), respectively. The primers and probes for the rRNA gene are commercially available from Applied Biosystems. […] The comparative CT method uses arithmetic formulas in which the amount of target (COXII gene) is normalized to the amount of an endogenous reference (the B-actin or rRNA gene) and is relative to a calibrator (a control with no drug at day 7). The arithmetic formula for this approach is given by 2-ΔΔCT, where ΔΔCT is (CT for average target test sample−CT for target control)−(CT for average reference test−CT for reference control) (see Johnson M R, K Wang, J B Smith, M J Heslin, R B Diasio. Quantitation of dihydropyrimidine dehydrogenase expression by real-time reverse transcription polymerase chain reaction. Anal. Biochem. 2000; 278:175-184). A decrease in mitochondrial DNA content in cells grown in the presence of drug indicated mitochondrial toxicity.

In the next data set the test system is HepG2 cells. Kind of data set: Lactic acid production in HepG2 cells. It is filed as cell-based, human. To be noted: 14-day assay. As for the experimental part:
To measure the effects of the compounds on lactic acid production, HepG2 cells from a stock culture were diluted and plated in 12-well culture plates at 2.5×10^4 cells per well. […] […] The culture medium was then filtered, and the lactic acid content in the medium was determined using a colorimetric lactic acid assay (Sigma-Aldrich). Since lactic acid product can be considered a marker for impaired mitochondrial function, elevated levels of lactic acid production detected in cells grown in the presence of test compounds would indicate a drug-induced cytotoxic effect.

Data set [3] is described as follows: Assay for bone marrow cytotoxicity. It is filed as cell-based, human. To be noted: human; organization LOBP; read-out: Bone marrow toxicity, CC50. As for the experimental part:
(§1) Primary human bone marrow mononuclear cells can be obtained commercially from Cambrex Bioscience (Walkersville, Md.). CFU-GM assays is carried out using a bilayer soft agar in the presence of 50 units/mL human recombinant granulocyte/macrophage colony-stimulating factor, while BFU-E assays used a […] matrix containing 1 unit/mL erythropoietin (see Sommadossi J P, Carlisle R. Toxicity of 3′-azido-3′-deoxythymidine and 9-(1,3-dihydroxy-2-propoxymethyl) guanine for normal human hepatopoietic progenitor cells in vitro. Antimicrob. Agents Chemother. 1987; 31: 452-454; Sommadossi, J P, Schinazi, R F, Chu, C K, and Xie, M Y. Comparison of cytotoxicity of the (−) and (+) enantiomer of 2′,3′-dideoxy-3′-thiacytidine in normal human bone marrow progenitor cells. Biochem. Pharmacol. 1992; 44:1921-1925). Each experiment can be performed in duplicate in cells from three different donors. AZT is used as a positive control. […] Statistical analysis can be performed with Student's t test for independent non-paired samples.

Data set [4] deals with Primary human bone marrow mononuclear cells. Kind of data set: Assay for bone marrow cytotoxicity. It is filed as cell-based. To be noted: organization Stem cell; read-out: Bone marrow toxicity, CC50. As for the experimental part: as §1
Data set [5] has as its system HCV 1b (Huh 7 Clone B cells containing HCV Replicon RNA). In words: HCV replicon assay. It is filed as cell-based. To be noted: Hepatitis C virus. The procedure: Huh 7 Clone B cells containing HCV Replicon RNA were seeded in a 96-well plate at 5000 cells/well, and the compounds tested at 10 μM in triplicate immediately after seeding. Following five days incubation (37° C., 5% CO2), total cellular RNA was isolated by using versaGene RNA purification kit from Gentra. Replicon RNA and an internal control (TaqMan rRNA control reagents, Applied Biosystems) were amplified in a single step multiplex Real Time RT-PCR Assay. The antiviral effectiveness of the compounds was calculated by subtracting the threshold RT-PCR cycle of the test compound from the threshold RT-PCR cycle of the no-drug control (ΔCt HCV). A ΔCt of 3.3 equals a 1-log reduction (equal to 90% less starting material) in Replicon RNA levels. The cytotoxicity of the compounds was also calculated by using the ΔCt rRNA values. 2′-C-Me-C was used as the positive control. To determine EC90 and IC50 values^2, ΔCt: values were first converted into fraction of starting material^3 and then were used to calculate the % inhibition. […]
For orientation: A replicon is a self-replicating genome or part of one, used to study replication in cells.

The nature of data set [6]: Cytotoxicity in HCV replicon assay (ΔCt rRNA). It is filed as cell-based. To be noted: human; replicon cells; CC50; read-out: CC50 or % inhibit cytotoxicity. As for the experimental part: (§2) Huh 7 Clone B cells containing HCV Replicon RNA were seeded in a 96-well plate at 5000 cells/well, and the compounds tested at 10 μM in triplicate immediately after seeding. Following five days incubation (37° C., 5% CO2), total cellular RNA was isolated by using versaGene RNA purification kit from Gentra. Replicon RNA and an internal control (TaqMan rRNA control reagents, Applied Biosystems) were amplified in a single step multiplex Real Time RT-PCR Assay. The antiviral effectiveness of the compounds was calculated by subtracting the threshold RT-PCR cycle of the test compound from the threshold RT-PCR cycle of the no-drug control (ΔCt HCV). A ΔCt of 3.3 equals a 1-log reduction (equal to 90% less starting material) in Replicon RNA levels. The cytotoxicity of the compounds was also calculated by using the ΔCt rRNA values. 2′-C-Me-C was used as the positive control. To determine EC90 and IC50 values^2, ΔCt: values were first converted into fraction of starting material^3 and then were used to calculate the % inhibition.

Another data set has as its system Huh-7 cells. In words: Cellular pharmacology in Huh7 cells (intracellular metabolites). The procedure:
Ice-cold 70% methanol was used as the extraction solvent. ddATP (10 nM) was used as the internal standard.

Data set [7] relates to cellular rRNA (internal control, measure of cytotoxicity). In words: Cytotoxicity in HCV replicon assay (ΔCt rRNA). It is filed as cell-based. To be noted: human. The procedure: as §2
The test system of data set [8] is Primary Human Hepatocytes. Kind of data set: Cellular egress from Primary Human Hepatocytes. To be noted: sofosbuvir pre-incubated 10 μM 12 h; time 48 hr. As for the experimental part:
FIGS. 6a and 6b are charts and tables showing cellular egress of Compound 9 (FIG. 6a) and sofosbuvir (FIG. 6b) from Primary Human Hepatocytes. The results are of freshly plated human hepatocytes ([…]) from a donor, where the cells were plated in 24-well plates. The compounds were pre-incubated at a concentration of 10 μM for 12 h, and cells were harvested at 0, 1, 2, 4, 10, 24 and 48 hours. The results for the monophosphate are shown in grey, for the diphosphate in orange, and for the triphosphate in blue.

Where [9] appears, read: Homo sapiens, HepG2, read-out: % inhibition MitDNA.

Entries after “also recorded” stand apart in the source; their conditions may differ. Where two headings read alike, the source gives them in different places.

A word on the inhibition: it is the relative decrease from the control value, in per cent. For orientation: CC50 means the concentration that lowers cell viability or growth by half. The EC90 is the concentration needed for an effect of 90%. Regarding `CC(C)OC(=O)[C@H](C)NP(=O)(OC[C@H]1O[C@@H](n2ccc(=O)[nH]c2=O)C(F)(Br)C1O)Oc1ccccc1` (stereo in doubt) [Compound 9], in [1] (HepG2 cells, 14-day assay, 10 μM, range in parentheses), the “MitDNA Content (% of control)” value is listed as 187 (169-206) % of control. Further, the “MitDNA Content (% of control)” value in data set [1] (HepG2 cells, 14-day assay, 50 μM, range in parentheses) is 64 (45-91) % of control. Besides, the “Summary (mitochondrial toxicity)” value in data set [1] (HepG2 cells, 14-day assay, mitochondrial/nuclear DNA and lactic acid) is “non-toxic up to 10 μM; also recorded: not toxic up to 10 μM”. Further, in data set [1] (setting [9]), the inhibition at 10 µM was less than 1% and the inhibition at 50 µM amounted to 67.8%. Also, in [2] (read-out: % inhibition nDNA), the inhibition at 10 µM worked out at 5.2% and the inhibition at 50 µM is 49.8%. Moreover, the “Lactic acid Production (% of control)” value in the data set on HepG2 cells (10 μM) is listed as 89.5 ± 2.0 % of control. Also, the “Lactic acid Production (% of control)” value in the data set with HepG2 cells (50 μM) is 111 ± 38.5 % of control. In addition, the cytotoxic concentration (CC50) in [3] was greater than 100 µM. Further, the 50% cytotoxic concentration (CC50) in [4] was greater than 100 µM. Moreover, the 90% effect concentration (EC90) in data set [5] (Huh-7, read-out: EC90 (μM or letter value) or % inhib HCV) is 0.1 to 1 µM. Moreover, the CC50 at 5 days in [6] was greater than 10 µM. Also, in the data set on Huh-7 cells (human), the “intracellular 7-DP” value turned out to be 252 ± 14 pmol/10^6 cells, the “intracellular 7-MP” value worked out at 12.4 ± 1.5 pmol/10^6 cells, the “intracellular 7-TP” value was found to be 98.2 ± 2.2 pmol/10^6 cells and the “intracellular 9” value worked out at 318.4 ± 26.6 pmol/10^6 cells.

As for `Nc1ccn([C@@H]2O[C@H](CO)[C@@H](O)[C@@]2(F)Br)c(=O)n1` [Compound 15, 2′-Deoxy-2′-bromo-2′-fluoro Cytidine], the inhibition at 10 µM in [5] (Huh-7, HCV 1b replicon, 10 μM) was 99.9%. The inhibition at 5 days, 10 µM in data set [7] stood at 67.9%.

For orientation: IC50 means the concentration at which inhibition is half-maximal. What is called EC50 is the concentration at which the effect is half-maximal. On to `CC(C)OC(=O)[C@H](C)N[P@](=O)(OC[C@H]1O[C@@H](n2ccc(=O)[nH]c2=O)[C@](C)(F)[C@@H]1O)Oc1ccccc1` [Sofosbuvir, reference compound], for which, in data set [1], the “Summary (mitochondrial toxicity)” value is listed as “Slightly toxic”. The inhibition at 1 µM in [1] (setting [9]) is -12%; in data set [2] (read-out: % inhibition nDNA), -98%. Further, the inhibition at 10 µM in [1] (setting [9]) is -18%; in data set [2] (read-out: % inhibition nDNA), -51%. In addition, the inhibition at 50 µM in [1] (setting [9]) came out at 87%; in data set [2] (read-out: % inhibition nDNA), 93%. Further, the IC50 in [1] (Homo sapiens, HepG2, read-out: IC50 MitDNA, HepG2 cells, 14-day assay) turned out to be 36 µM; in [2] (read-out: IC50 nDNA, HepG2 cells, 14-day assay), 38 µM. In addition, the “MitDNA Content (% of control)” value in [1] (human, 14 days, 1 μM) was 57 (35-93) % of control; in data set [1] (human, 14 days, 10 μM), 78 (69-89) % of control; in data set [1] (human, 14 days, 50 μM), 200 (136-278) % of control. Moreover, the EC90 in [5] (Huh-7, HCV 1b replicon, numeric EC90, read-out: EC90 (μM or letter value) or % inhib HCV) came out at 0.8 µM. For the same molecule, in data set [5] (Huh-7, HCV 1b replicon, numeric, read-out: EC50 (μM or letter value)), the EC50 was determined as 0.2 µM. Further, in the data set on Huh-7 cells (Huh-7 cells, 50 μM, 4 hr), the “intracellular SOF” value is 206.4 ± 3.2 pmol/10^6 cells. Moreover, in the data set on Huh-7 cells (Huh-7 cells, 50 μM, 4 hr), the “intracellular SOF-nuc” value is listed as “BLOQ”. The “2′-F, 2′Me UMP” value in [8] is given as “BLOQ”. Further, the MI entry in data set [8] is on record as “BLOQ”.
